Like-named read-outs stand apart in the source and are kept apart here.
Experiments:
[1] = tested on: secreted cytokines TNFα, IL-6 and KC-GRO in BV-2 cells (mouse microglial cells); assay: Secreted cytokines in lipopolysaccharide-stimulated mouse glial cell line; assay type: cell-based; conditions: LPS 250 ng/mL 5 hours, table does not say which cytokine
In short: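 BV-2 cells seeded at 35,000/well were pretreated overnight with compound (10 μM to 4.6 nM final), then stimulated 5 h with 250 ng/mL E. coli O111:B4 LPS. Supernatant TNFα, IL-6 and KC-GRO were quantified by electrochemiluminescence against standard curves (pg/mL) to fit EC50. Cytotoxicity was checked by CellTiter-Glo ATP read-out.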

[2] = tested on: Wnt activity (SW480 colon carcinoma cells stably expressing the Sp5-Luc reporter gene); assay: Wnt activity screening assay (Sp5-Luc reporter gene assay); assay type: cell-based, human; conditions: Homo sapiens; for EC50: 36 to 48 hours; for inhibition at 10 µM: read-out: percent inhibition at 10 μM (given for EC50 >10 μM), 10 μM
In short: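 SW480 colon carcinoma cells stably carrying a lentiviral luciferase reporter driven by an Sp5 promoter with eight TCF/LEF sites, plated at 4,000 cells/well in DMEM with 1% FBS. Compound exposure for 36–48 h at 37 °C, then luminescence read. Signals normalized to DMSO; EC50 from four-parameter nonlinear fit.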

[3] = tested on: pT212Tau in Dyrk1a- and MAPT-overexpressing HEK293T cells; assay: Tau phosphorylation at Threonine 212 (pT212Tau) sandwich ELISA in double transfected cells; conditions: Homo sapiens, HEK-293T, read-out: Thr212 EC50 (μM)
Description: HEK293T cells (transfectable human embryonic kidney cells) were cultured in DMEM medium supplemented with 10% FBS and 1% penicillin/streptomycin.
HEK293T cells were transiently transfected to overexpress Dyrk1a and microtubule-associated protein Tau (MAPT) genes. Specifically, Dyrk1a and MAPT expression vectors were obtained from OriGene (10 μg of each, catalog numbers SC314641 and RC216166, respectively). […] HEK293T cells were seeded at 1.0×10^7 cells in 10 mL per T-75 flask. […] One T-75 flask was designated as a no-vector negative control for pT212Tau signal.
After 4-6 hours of incubation in transfection reagents, transiently double transfected HEK293T cells were dissociated by treatment with trypsin EDTA and seeded at 1.0×10^5 cells in 100 μL per well in 96-well plates. No-vector negative controls were seeded in separate 96-well plates to avoid the risk of the negative control cells picking up the overexpression during incubation.
96-well flat-bottom plates were coated with 100 μL per well anti-HT7 capture antibody (ThermoFisher, MN1000) diluted 1:300 in 1×PBS at 4° C. overnight, with shaking at 500 rpm.
Cells were then lysed with 100 μL 1×RIPA buffer supplemented with phosphatase and protease inhibitors (each diluted to a final 1×). […] V-bottom plates were centrifuged at 4000 rpm, 4° C., for 15 minutes, and 100 μL of lysate supernatant from each well was directly tested for pT212Tau signal by sandwich ELISA.

[4] = target: recombinant DYRK1A kinase (Homo sapiens (Human), UniProt Q13627); assay: DYRK1A kinase assay (Ser/Thr 18 peptide Z-lyte, FRET)
[5] = tested on: LL29 cells (primary human fibroblasts derived from IPF patients), α-smooth muscle actin; assay: Inhibition of fibrotic process: TGF-β1-treated primary human fibroblasts, αSMA staining; assay type: cell-based; conditions: Homo sapiens, Fibroblast; for EC50: 96 h, TGF-β1 20 ng/mL, 4 days, % cells positive for αSMA; for inhibition at 10 µM: read-out: percent inhibition at 10 μM (given for EC50 >10 μM), TGF-β1, αSMA, 10 μM;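 on all read-outs here: controls were TGF-β1-stimulated wells with DMSO vehicle as the positive reference and cells given DMSO alone as the negative reference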
[6] = tested on: IL-6 in human peripheral blood mononuclear cells (huPBMCs); assay: IL-6 inhibition in LPS-stimulated human peripheral blood mononuclear cells (HTRF); assay type: cell-based; conditions: Homo sapiens, PBMC; for EC50: LPS 50 ng/mL, 22 hours, IL-6 HTRF; for inhibition at 10 µM: read-out: percent inhibition at 10 μM (given for EC50 >10 μM), LPS, IL-6, 10 μM
In short: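 Fresh normal human PBMCs at 1×10e6 cells/mL in RPMI with 1% FBS received compound, then 50 ng/mL E. coli 0111:B4 LPS 2 h later, and were incubated a further 22 h at 37° C. IL-6 read by HTRF (665/620 nm ratio), normalized to DMSO; EC50 from 4-parameter fit.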

[7] = DYRK1A kinase, head says EC50, method says IC50, ATP 30 μM

For `O=C(Nc1cc2cc(-c3cccnc3)ccc2cn1)C1CC1` [Compound 6, N-(6-(Pyridin-3-yl)isoquinolin-3-yl)cyclopropanecarboxamide], the EC50 [1] was 0.033 µM, the EC50 [2] was 1.1 µM and the EC50 [3] was 0.01 µM. The EC50 [4, 7] was 0.002 µM, the EC50 [5] was 0.197 µM and the EC50 [6] was 1.03 µM.

With `O=C(CN1CCCC1)Nc1cc2cc(-c3cccnc3)ccc2cn1` [Compound 7, N-(6-(Pyridin-3-yl)isoquinolin-3-yl)-2-(pyrrolidin-1-yl)acetamide] the EC50 [1] was 0.006 µM, the EC50 [2] was 3.84 µM and the EC50 [3] was 0.225 µM. The EC50 [4, 7] was 0.007 µM, the EC50 [5] was 4.35 µM and the EC50 [6] was 9.26 µM.

`CN1CCC(C(=O)Nc2cc3cc(-c4cccnc4)ccc3cn2)CC1` [Compound 8, 1-Methyl-N-(6-(pyridin-3-yl)isoquinolin-3-yl)piperidine-4-carboxamide] gave an EC50 [1] of 0.036 µM, an EC50 [2] of 1.28 µM and an EC50 [3] of 0.019 µM. It also gave an EC50 [4, 7] of 0.002 µM, an EC50 [5] of 0.398 µM and an EC50 [6] of 1.97 µM.

With `O=C(Nc1cc2cc(-c3cccnc3)ccc2cn1)C12CCN(CC1)CC2` [Compound 9, N-(6-(Pyridin-3-yl)isoquinolin-3-yl)quinuclidine-4-carboxamide] the EC50 [1] was 0.745 µM, the EC50 [2] was > 10 µM and the inhibition at 10 µM [2] was 11.8%. The EC50 [3] was 0.213 µM, the EC50 [4, 7] was 0.026 µM and the EC50 [5] was 2.27 µM. For the same molecule, the EC50 [6] was > 10 µM and the inhibition at 10 µM [6] was 3.9%.

`O=C(CN1CCOCC1)Nc1cc2cc(-c3cccnc3)ccc2cn1` [Compound 10, 2-Morpholino-N-(6-(pyridin-3-yl)isoquinolin-3-yl)acetamide] was tested, and the EC50 [1] was 0.075 µM, the EC50 [2] was > 10 µM and the inhibition at 10 µM [2] was 15.3%. For the same molecule, the EC50 [3] was 0.046 µM, the EC50 [4, 7] was 0.008 µM and the EC50 [5] was > 10 µM. For the same molecule, the inhibition at 10 µM [5] was 6.2%, the EC50 [6] was > 10 µM and the inhibition at 10 µM [6] was 3.7%.

For `CN1CCN(CC(=O)Nc2cc3cc(-c4cccnc4)ccc3cn2)CC1` [Compound 11, 2-(4-Methylpiperazin-1-yl)-N-(6-(pyridin-3-yl)isoquinolin-3-yl)acetamide], the EC50 [1] was 0.327 µM, the EC50 [2] was > 10 µM and the inhibition at 10 µM [2] was 10.8%. The EC50 [3] was 2.5 µM, the EC50 [4, 7] was 0.02 µM and the EC50 [5] was 3.58 µM. The EC50 [6] was > 10 µM and the inhibition at 10 µM [6] was 8.5%.

`CN1CCCN(CC(=O)Nc2cc3cc(-c4cccnc4)ccc3cn2)CC1` [Compound 12, 2-(4-Methyl-1,4-diazepan-1-yl)-N-(6-(pyridin-3-yl)isoquinolin-3-yl) acetamide] was tested, and the EC50 [1] was 1 µM, the EC50 [2] was > 10 µM and the inhibition at 10 µM [2] was 39.8%. It also gave an EC50 [3] of 0.284 µM, an EC50 [4, 7] of 0.017 µM and an EC50 [5] of 1.19 µM. For the same molecule, the EC50 [6] was 9.86 µM.

`Cc1nccn1CC(=O)Nc1cc2cc(-c3cccnc3)ccc2cn1` [Compound 14, 2-(2-Methyl-1H-imidazol-1-yl)-N-(6-(pyridin-3-yl)isoquinolin-3-yl) acetamide] was tested, and the EC50 [1] was 0.136 µM, the EC50 [2] was 3.6 µM and the EC50 [3] was 0.043 µM. For the same molecule, the EC50 [4, 7] was 0.007 µM, the EC50 [5] was 2.23 µM and the EC50 [6] was 9.03 µM.

With `O=C(Cn1ccnc1)Nc1cc2cc(-c3cccnc3)ccc2cn1` [Compound 15, 2-(1H-Imidazol-1-yl)-N-(6-(pyridin-3-yl)isoquinolin-3-yl)acetamide] the EC50 [1] was 0.021 µM, the EC50 [2] was 3.1 µM and the EC50 [3] was 0.2 µM. It also gave an EC50 [4, 7] of 0.005 µM, an EC50 [5] of 1.53 µM and an EC50 [6] of 4.82 µM.

Work on `CN1CCN(C[C@H]2CC[C@H](C(=O)Nc3cc4cc(-c5cncc(F)c5)ccc4cn3)CC2)CC1` [Compound 17, trans-N-(6-(5-Fluoropyridin-3-yl)isoquinolin-3-yl)-4-((4-methylpiperazin-1-yl)methyl)cyclohexane-1-carboxamide] yielded an EC50 [1] of 0.038 µM, an EC50 [2] of 6.73 µM and an EC50 [3] of 0.004 µM. It also gave an EC50 [4, 7] of 0.003 µM, an EC50 [5] of 0.471 µM and an EC50 [6] of 9.35 µM.

With `O=C(CN1CCCC1)Nc1cc2cc(-c3cncc(F)c3)ccc2cn1` [Compound 18, N-(6-(5-Fluoropyridin-3-yl)isoquinolin-3-yl)-2-(pyrrolidin-1-yl)acetamide] the EC50 [1] was 1.33 µM, the EC50 [2] was > 10 µM and the inhibition at 10 µM [2] was 9.2%. For the same molecule, the EC50 [3] was 0.053 µM, the EC50 [4, 7] was 0.039 µM and the EC50 [5] was 5.97 µM. The EC50 [6] was > 10 µM and the inhibition at 10 µM [6] was 5.8%.

With `CN1CCC(C(=O)Nc2cc3cc(-c4cncc(F)c4)ccc3cn2)CC1` [Compound 19, N-(6-(5-Fluoropyridin-3-yl)isoquinolin-3-yl)-1-methylpiperidine-4-carboxamide] the EC50 [1] was 0.124 µM, the EC50 [2] was > 10 µM and the inhibition at 10 µM [2] was 35.9%. The EC50 [3] was 0.205 µM, the EC50 [4] was 0.01 µM and the EC50 [5] was 1.21 µM. It also gave an EC50 [6] of 9.15 µM.

In the case of `CN1CCN(CC(=O)Nc2cc3cc(-c4cncc(F)c4)ccc3cn2)CC1` [Compound 20, N-(6-(5-Fluoropyridin-3-yl)isoquinolin-3-yl)-2-(4-methylpiperazin-1-yl) acetamide], the EC50 [2] is reported as > 10 µM, the inhibition at 10 µM [2] is reported as 17.4% and the EC50 [3] is reported as 0.252 µM. For the same molecule, the EC50 [4] was 0.031 µM, the EC50 [5] was 3.14 µM and the EC50 [6] was > 10 µM. It also gave an inhibition at 10 µM [6] of 3.6%.

`CN1CCN(CC(=O)Nc2cc3cc(-c4ccc(F)nc4)ccc3cn2)CC1` [Compound 21, N-(6-(6-Fluoropyridin-3-yl)isoquinolin-3-yl)-2-(4-methylpiperazin-1-yl) acetamide] was tested, and the EC50 [1] was 0.671 µM, the EC50 [2] was > 10 µM and the inhibition at 10 µM [2] was 5.5%. For the same molecule, the EC50 [3] was 1.5 µM, the EC50 [4, 7] was 0.042 µM and the EC50 [5] was 3.41 µM. For the same molecule, the EC50 [6] was > 10 µM and the inhibition at 10 µM [6] was 6.3%.

With `O=C(CCN1CCOCC1)Nc1cc2cc(-c3cncc(F)c3)ccc2cn1` [Compound 23, N-(6-(5-Fluoropyridin-3-yl)isoquinolin-3-yl)-3-morpholinopropanamide] the EC50 [1] was 0.628 µM, the EC50 [2] was > 10 µM and the inhibition at 10 µM [2] was 38.7%. For the same molecule, the EC50 [3] was > 10 µM, the EC50 [4] was 0.017 µM and the EC50 [5] was 1.63 µM. For the same molecule, the EC50 [6] was > 10 µM and the inhibition at 10 µM [6] was 8.6%.

In the case of `CN1CCC(C(=O)Nc2cc3cc(-c4cncc(C#N)c4)ccc3cn2)CC1` [Compound 32, N-(6-(5-Cyanopyridin-3-yl)isoquinolin-3-yl)-1-methylpiperidine-4-carboxamide], the EC50 [1] is reported as 0.64 µM, the EC50 [2] is reported as > 10 µM and the inhibition at 10 µM [2] is reported as 24.2%. The EC50 [3] was 0.161 µM, the EC50 [4, 7] was 0.057 µM and the EC50 [5] was 8.4 µM. For the same molecule, the EC50 [6] was > 10 µM and the inhibition at 10 µM [6] was 5.1%.

Molecule `COc1cncc(-c2ccc3cnc(NC(=O)C4CCN(C)CC4)cc3c2)c1` [Compound 33, N-(6-(5-Methoxypyridin-3-yl)isoquinolin-3-yl)-1-methylpiperidine-4-carboxamide] has an EC50 [1] of 0.062 µM, an EC50 [2] of 0.81 µM and an EC50 [3] of 0.033 µM. For the same molecule, the EC50 [4, 7] was 0.004 µM, the EC50 [5] was 0.481 µM and the EC50 [6] was 3.65 µM.

In the case of `O=C(Nc1cc2cc(-c3cncc(NC4CCNCC4)n3)ccc2cn1)C1CCCCC1` [Compound 44, N-(6-(6-(piperidin-4-ylamino)pyrazin-2-yl)isoquinolin-3-yl) cyclohexanecarboxamide], the EC50 [1] is reported as 0.06 µM, the EC50 [2] is reported as 0.319 µM and the EC50 [3] is reported as < 0.003 µM. For the same molecule, the EC50 [4, 7] was 0.001 µM, the EC50 [5] was 0.401 µM and the EC50 [6] was 0.375 µM.

Work on `CN1CCC(C(=O)Nc2cc3cc(-c4cncc(N5CCCC5)c4)ccc3cn2)CC1` [Compound 50, 1-Methyl-N-(6-(5-(pyrrolidin-1-yl)pyridin-3-yl)isoquinolin-3-yl)piperidine-4-carboxamide] yielded an EC50 [1] of 0.109 µM, an EC50 [2] of 0.312 µM and an EC50 [3] of 0.113 µM. The EC50 [4, 7] was 0.025 µM, the EC50 [5] was > 10 µM and the inhibition at 10 µM [5] was 31.1%. For the same molecule, the EC50 [6] was 8.95 µM.

`O=C(Nc1cc2cc(-c3cncc(CN4CCCC4)c3)ccc2cn1)C1CC1` [Compound 51, N-(6-(5-(Pyrrolidin-1-ylmethyl)pyridin-3-yl)isoquinolin-3-yl) cyclopropanecarboxamide] was tested, and the EC50 [1] was 0.171 µM, the EC50 [2] was 1.27 µM and the EC50 [3] was 0.047 µM. For the same molecule, the EC50 [4, 7] was 0.007 µM, the EC50 [5] was 4.23 µM and the EC50 [6] was 3 µM.

`O=C(Nc1cc2cc(-c3cnccn3)ccc2cn1)C1CCN(C2COC2)CC1` [Compound 78, 1-(Oxetan-3-yl)-N-(6-(pyrazin-2-yl)isoquinolin-3-yl)piperidine-4-carboxamide] was tested, and the EC50 [1] was 0.131 µM, the EC50 [2] was > 10 µM and the inhibition at 10 µM [2] was 28.1%. The EC50 [4, 7] was 0.013 µM, the EC50 [5] was 2.31 µM and the EC50 [6] was > 10 µM. The inhibition at 10 µM [6] was 8.9%.
